Results published in patent publication US20210323976A1, “HETEROARYL COMPOUNDS FOR KINASE INHIBITION” (ARIAD Pharmaceuticals, Inc., priority 2015, published 2021).

How the values were obtained:
[1] = molecular target: T1, EGFR exon 20 ASV insertion (V769_D770insASV) (Homo sapiens, UniProt P00533, INS769ASV); assay: Ba/F3-EGFR-Exon20-ASV cell anti-proliferation assay (MTS, CellTiter 96 AQueous One); format: cell-based; settings: Ba/F3-EGFR-Exon20-ASV cells, 72 h, MTS signal
T1 construct: expressed in transfected cells; host or cells: Ba/F3 (murine pro-B) cells, lentiviral transduction with pLVX-IRES puro
Source text: (§1) A compound's ability in selectively inhibiting EGFR exon 20 insertion mutations can be assessed using Ba/F3 cells, a murine pro-B cell line, which have been transduced with EGFR exon 20 insertions. An expression vector, pLVX-IRES puro (Clontech) coding for human EGFR exon 20 insertions NPG (H773_V774insNPG) or ASV (V769_D770insASV), was transfected into HEK293 cells by the Trans-Lentiviral ORF Packaging System (Thermo Scientific), to produce virus encoding EGFR exon 20 insertions. Ba/F3 (DSMZ) cells maintained in RPM11640 medium supplemented with 10% fetal bovine serum, 200 pM L-glutamine/200 µg/mL penicillin/200 µg/mL streptomycin (Life Technology) and 10 ng/mL IL-3 (R&D system), were infected by EGFR Exon20 virus and subsequently selected by puromycin (Life Technology) selection and IL-3 depletion. Ba/F3 cells expressing EGFR exon 20 insertions (named Ba/F3-EGFR-Exon20-NPG or Ba/F3-EGFR-Exon20-ASV) can proliferate in the absence of IL-3. The anti-proliferative activity of compounds were determined as follows: BaF3-EGFR-Exon20 cells (NPG or ASV) seeded in 96 well plates (2500 cells/well) were treated with test compound (dissolved in DMSO) at a series of concentrations (4-fold dilution, top concentration: 10,000 nM). The plates were incubated for 72 h in a 37° C. incubator with 5% CO2, and the number of viable cells in each well were measured indirectly by CellTiter 96® Aqueous One Solution Cell Proliferation Assay (Promega) This assay is a colorimetric method for determining the number of viable cells through measurement of their metabolic activity by detection of enzymatic conversion of tetrazolium salts into blue formazan derivatives. Reagent (20 pL) was added into each well, and the plates were returned to the incubator for 2 h. The absorbance in each well was then measured at 490 nm using an Envision plate reader (Perkin Elmer). IC50 values were calculated by determining the concentration of compound required to decrease the MTS signal by 50% comparing to the DMSO control in best-fit curves using Microsoft XLfit software or Accelrys Pipeline Pilot.

[2] = molecular target: EGFR exon 20 NPG insertion (H773_V774insNPG) (Homo sapiens, UniProt P00533, cells depend on it, form not given); assay: Ba/F3-EGFR-Exon20-NPG cell anti-proliferation assay (MTS, CellTiter 96 AQueous One); format: cell-based; settings: 72 h, MTS signal
Source text: as §1

T1 sequence (P00533 with tags, fused parts or gaps INS769ASV): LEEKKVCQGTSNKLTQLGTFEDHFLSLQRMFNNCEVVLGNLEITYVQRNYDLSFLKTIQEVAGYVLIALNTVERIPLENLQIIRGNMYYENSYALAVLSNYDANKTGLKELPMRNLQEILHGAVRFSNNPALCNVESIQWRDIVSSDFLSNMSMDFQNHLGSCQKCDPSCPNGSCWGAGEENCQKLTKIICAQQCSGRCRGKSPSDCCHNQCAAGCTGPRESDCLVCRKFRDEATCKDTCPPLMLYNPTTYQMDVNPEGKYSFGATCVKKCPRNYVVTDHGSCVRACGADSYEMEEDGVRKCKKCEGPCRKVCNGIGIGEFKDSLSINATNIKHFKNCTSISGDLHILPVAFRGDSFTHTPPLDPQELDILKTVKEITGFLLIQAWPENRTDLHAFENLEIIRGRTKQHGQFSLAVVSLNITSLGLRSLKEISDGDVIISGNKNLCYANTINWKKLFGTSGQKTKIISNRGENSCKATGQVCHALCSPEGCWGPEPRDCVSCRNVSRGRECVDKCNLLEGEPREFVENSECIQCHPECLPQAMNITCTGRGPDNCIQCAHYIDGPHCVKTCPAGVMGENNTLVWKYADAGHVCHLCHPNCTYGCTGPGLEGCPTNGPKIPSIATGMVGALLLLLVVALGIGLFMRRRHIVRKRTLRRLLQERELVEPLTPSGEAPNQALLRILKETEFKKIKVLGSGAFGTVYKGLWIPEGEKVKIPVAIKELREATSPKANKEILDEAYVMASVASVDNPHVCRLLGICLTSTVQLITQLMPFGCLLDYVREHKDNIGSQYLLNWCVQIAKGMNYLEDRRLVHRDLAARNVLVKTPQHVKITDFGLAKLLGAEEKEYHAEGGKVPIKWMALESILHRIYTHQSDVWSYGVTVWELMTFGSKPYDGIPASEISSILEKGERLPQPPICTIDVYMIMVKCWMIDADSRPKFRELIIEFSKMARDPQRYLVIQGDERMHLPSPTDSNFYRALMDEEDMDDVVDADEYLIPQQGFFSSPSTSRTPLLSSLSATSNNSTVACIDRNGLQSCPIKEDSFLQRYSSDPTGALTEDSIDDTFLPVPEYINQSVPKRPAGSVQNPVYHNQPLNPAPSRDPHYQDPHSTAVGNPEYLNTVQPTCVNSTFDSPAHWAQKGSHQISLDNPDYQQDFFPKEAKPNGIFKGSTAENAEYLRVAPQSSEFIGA
EGFR exon 20 NPG insertion (H773_V774insNPG), sequence (P00533 with tags, fused parts or gaps INS772GNP, form open): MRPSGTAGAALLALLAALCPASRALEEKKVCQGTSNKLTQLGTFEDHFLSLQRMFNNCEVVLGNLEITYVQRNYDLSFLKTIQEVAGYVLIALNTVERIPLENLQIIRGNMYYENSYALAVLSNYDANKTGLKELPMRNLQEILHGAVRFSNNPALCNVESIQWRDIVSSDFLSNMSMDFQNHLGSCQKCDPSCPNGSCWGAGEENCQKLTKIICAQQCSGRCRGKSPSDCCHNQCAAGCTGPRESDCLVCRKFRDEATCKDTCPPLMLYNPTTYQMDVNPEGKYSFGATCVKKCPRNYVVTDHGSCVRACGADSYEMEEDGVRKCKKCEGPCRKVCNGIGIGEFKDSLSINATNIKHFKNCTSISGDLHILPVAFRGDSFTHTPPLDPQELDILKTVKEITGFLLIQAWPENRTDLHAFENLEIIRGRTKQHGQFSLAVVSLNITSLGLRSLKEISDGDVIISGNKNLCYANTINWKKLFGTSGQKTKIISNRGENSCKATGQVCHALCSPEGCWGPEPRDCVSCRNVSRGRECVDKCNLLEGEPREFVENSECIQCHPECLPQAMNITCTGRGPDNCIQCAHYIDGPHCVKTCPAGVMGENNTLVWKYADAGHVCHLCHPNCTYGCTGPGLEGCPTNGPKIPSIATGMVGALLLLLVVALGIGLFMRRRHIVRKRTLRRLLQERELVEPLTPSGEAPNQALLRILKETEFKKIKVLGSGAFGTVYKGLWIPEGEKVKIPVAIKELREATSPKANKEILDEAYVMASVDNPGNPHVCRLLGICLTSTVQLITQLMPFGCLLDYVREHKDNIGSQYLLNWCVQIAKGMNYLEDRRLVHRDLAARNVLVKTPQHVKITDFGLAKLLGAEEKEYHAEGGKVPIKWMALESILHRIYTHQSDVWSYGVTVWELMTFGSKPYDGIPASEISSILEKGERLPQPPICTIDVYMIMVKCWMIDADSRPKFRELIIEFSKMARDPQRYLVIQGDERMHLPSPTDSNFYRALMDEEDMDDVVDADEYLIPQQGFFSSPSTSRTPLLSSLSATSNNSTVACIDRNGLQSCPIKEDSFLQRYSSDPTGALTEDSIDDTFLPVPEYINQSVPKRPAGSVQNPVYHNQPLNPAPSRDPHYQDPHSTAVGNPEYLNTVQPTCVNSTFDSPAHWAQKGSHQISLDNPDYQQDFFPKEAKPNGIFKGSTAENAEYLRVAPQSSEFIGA

Question: What does the source list for `C=CC(=O)Nc1cc(Nc2nccc(-c3c4n(c5ccccc35)CCOC4)n2)c(OC)cc1N(C)CCN(C)C` [Example 1, N-(5-((4-(3,4-dihydro-1H-[1,4]oxazino[4,3-a]indol-10-yl)pyrimidin-2-yl)amino)-2-((2-(dimethylamino)ethyl)(methyl)amino)-4-methoxyphenyl)acrylamide]?
Answer: IC50 [1]: < 0.1 µM; IC50 [2]: < 0.1 µM

Question: `C=CC(=O)Nc1cc(Nc2nccc(-c3c4n(c5ccccc35)CCN(C)C4=O)n2)c(OC)cc1N(C)CCN(C)C` [Example 2, N-(2-((2-(dimethylamino)ethyl)(methyl)amino)-4-methoxy-5-((4-(2-methyl-1-oxo-1,2,3,4-tetrahydropyrazino[1,2-a]indol-10-yl)pyrimidin-2-yl)amino)phenyl)acrylamide] was tested. Which IC50 [1] did it give?
Answer: 0.1 to 0.5 µM

Question: How did the IC50 [1] turn out when `C=CC(=O)Nc1cc(Nc2nccc(-c3c4n(c5ccccc35)CC(O)CC4)n2)c(OC)cc1N(C)CCN(C)C` (stereo not shown) [Example 3, N-(2-((2-(dimethylamino)ethyl)(methyl)amino)-5-((4-(7-hydroxy-6,7,8,9-tetrahydropyrido[1,2-a]indol-10-yl)pyrimidin-2-yl)amino)-4-methoxyphenyl)acrylamide] was run?
Answer: < 0.1 µM

Question: What about the IC50 [2] of the same molecule?
Answer: < 0.1 µM

Question: `C=CC(=O)Nc1cc(Nc2nccc(-c3c4n(c5ccccc35)CC3OC(C)(C)OC3C4)n2)c(OC)cc1N(C)CCN(C)C` (stereo not drawn) [Example 4, N-(5-((4-(cis-2,2-dimethyl-3a,4,11,11a-tetrahydro-[1,3]dioxolo[4′,5′:4,5]pyrido[1,2-a]indol-10-yl)pyrimidin-2-yl)amino)-2-((2-(dimethylamino)ethyl)(methyl)amino)-4-methoxyphenyl)acrylamide] was tested. Which IC50 [1] did it give?
Answer: < 0.1 µM

Question: With `C=CC(=O)Nc1cc(Nc2nccc(-c3c4n(c5ccccc35)CCCC4)n2)c(OC)cc1N(C)CCN(C)C` [Example 5, N-(2-((2-(dimethylamino)ethyl)(methyl)amino)-4-methoxy-5-((4-(6,7,8,9-tetrahydropyrido[1,2-a]indol-10-yl)pyrimidin-2-yl)amino)phenyl)acrylamide] as the molecule, how does the IC50 [1] read?
Answer: < 0.1 µM

Question: `C=CC(=O)Nc1cc(Nc2nccc(-c3c4n(c5ccccc35)CC(O)C(O)C4)n2)c(OC)cc1N(C)CCN(C)C` (stereo not drawn) [Example 6, N-(5-((4-(cis-7,8-dihydroxy-6,7,8,9-tetrahydropyrido[1,2-a]indol-10-yl)pyrimidin-2-yl)amino)-2-((2-(dimethylamino)ethyl)(methyl)amino)-4-methoxyphenyl)acrylamide] was tested. Which IC50 [1] did it give?
Answer: < 0.1 µM

Question: With `C=CC(=O)Nc1cc(Nc2nccc(-c3c4n(c5ccccc35)CC(OC)CC4)n2)c(OC)cc1N(C)CCN(C)C` (stereo not shown) [Example 7, N-(2-((2-(dimethylamino)ethyl)(methyl)amino)-4-methoxy-5-((4-(7-methoxy-6,7,8,9-tetrahydropyrido[1,2-a]indol-10-yl)pyrimidin-2-yl)amino)phenyl)acrylamide] as the molecule, how does the IC50 [1] read?
Answer: < 0.1 µM

Question: Which IC50 [1] does the source give for `C=CC(=O)Nc1cc(Nc2nccc(-n3c4c(c5ccccc53)CC(O)CC4)n2)c(OC)cc1N(C)CCN(C)C` (stereo not shown) [Example 10, N-(2-((2-(dimethylamino)ethyl)(methyl)amino)-5-((4-(3-hydroxy-1,2,3,4-tetrahydro-9H-carbazol-9-yl)pyrimidin-2-yl)amino)-4-methoxyphenyl)acrylamide] here?
Answer: < 0.1 µM
